Some test systems named below: M14 melanoma; K-562 leukemia; A498 renal; MALME-3M melanoma; SNB-75 CNS; U251 CNS; RXF 393 renal; COLO 205 colon; LOX IMVI melanoma; OVCAR-8 ovarian; T-47D breast; UO-31 renal; SK-OV-3 ovarian.
Common to all, as to experiment: DTP human tumour cell line panel, 48 h

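Results reflect a 48-hour exposure of cells in 96-well plates to compound at five concentrations. TGI is the concentration that stops growth completely.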

In general, TGI refers to the concentration at which net growth stops. Read a high TGI as less potent growth arrest. As to `Cc1ccc([C@@H]2[C@@H](C(=O)c3ccccn3)[C@H](c3ccc(C)cc3)C[C@](O)(c3ccccn3)[C@H]2C(=O)c2ccccn2)cc1`, the TGI with M14 melanoma is 3.01 µM; in the experiment on K-562 leukemia it was above 100 µM; in the experiment on A498 renal it was above 41.6 µM; in the experiment with MALME-3M melanoma, above 100 µM; with SNB-75 CNS, above 100 µM; with U251 CNS it was above 100 µM. For the same molecule, the concentration for total growth inhibition (TGI) in the experiment on RXF 393 renal, in the experiment on COLO 205 colon, in the experiment on LOX IMVI melanoma, in the experiment on OVCAR-8 ovarian, with T-47D breast and in the experiment on UO-31 renal was above 100 µM throughout. In the experiment with SK-OV-3 ovarian, this molecule had a total growth inhibition concentration (TGI) above 39.2 µM.

For `CN1C(=O)C2C(=O)N(Cc3ccccc3)CC(=O)N2c2cccnc21` (stereo not drawn), the TGI in the experiment with M14 melanoma, in the experiment with K-562 leukemia, in the experiment on A498 renal, in the experiment with MALME-3M melanoma, in the experiment with SNB-75 CNS and in the experiment on U251 CNS was above 100 µM throughout. Moreover, the TGI in the experiment with RXF 393 renal, in the experiment on COLO 205 colon, in the experiment with LOX IMVI melanoma, with OVCAR-8 ovarian, in the experiment on T-47D breast and in the experiment on UO-31 renal was above 100 µM in each case. For the same molecule, the TGI in the experiment with SK-OV-3 ovarian was above 100 µM.

For the molecule `O=C(O)CSc1nnc(COc2ccc(Cl)cc2)n1-c1ccccc1`, the TGI in the experiment on M14 melanoma, with K-562 leukemia, with A498 renal, in the experiment on MALME-3M melanoma, with SNB-75 CNS and in the experiment on U251 CNS was above 100 µM each time. In addition, the total growth inhibition concentration (TGI) in the experiment with RXF 393 renal, in the experiment with COLO 205 colon, in the experiment on LOX IMVI melanoma, in the experiment with OVCAR-8 ovarian, in the experiment on T-47D breast and with UO-31 renal was above 100 µM in each case. The same molecule showed a concentration for total growth inhibition (TGI) in the experiment on SK-OV-3 ovarian above 100 µM.

`COc1cc(/C=C2/C(=O)N(C(=O)c3ccccc3O)N=C2C)cc(OC)c1OC`: the total growth inhibition concentration (TGI) is above 100 µM with M14 melanoma; above 100 µM with K-562 leukemia; 0.7 µM in the experiment on A498 renal; above 100 µM with MALME-3M melanoma; above 100 µM in the experiment with SNB-75 CNS; above 100 µM in the experiment with U251 CNS. Further, the TGI in the experiment with RXF 393 renal was 8.74 µM; in the experiment with COLO 205 colon it was above 100 µM; in the experiment with LOX IMVI melanoma, above 100 µM; in the experiment on OVCAR-8 ovarian it was above 100 µM; in the experiment with T-47D breast, above 100 µM; in the experiment on UO-31 renal it was 6.81 µM. The molecule further gave a TGI with SK-OV-3 ovarian above 100 µM.

In the case of `O=C(Nc1ccc(Br)cc1)c1c(-c2ccccc2)c2ccc(O)cc2oc1=O`, the TGI in the experiment with M14 melanoma, in the experiment on K-562 leukemia, in the experiment on A498 renal, with MALME-3M melanoma, with SNB-75 CNS and with U251 CNS was above 10 µM in each case. Moreover, the total growth inhibition concentration (TGI) in the experiment on RXF 393 renal, with COLO 205 colon, in the experiment on LOX IMVI melanoma, in the experiment with OVCAR-8 ovarian, with T-47D breast and in the experiment on UO-31 renal was above 10 µM throughout. Moreover, the TGI in the experiment on SK-OV-3 ovarian is above 10 µM.

Turning to `COCOC1/C=C/CCCC#C[C@H](C)C(=O)CC1` (stereo partly drawn), the total growth inhibition concentration (TGI) with M14 melanoma turned out to be 21 µM; in the experiment on K-562 leukemia it was 5.28 µM; with A498 renal, 25.4 µM; with MALME-3M melanoma it was 19.4 µM; in the experiment on SNB-75 CNS, 25.3 µM; in the experiment on U251 CNS, 24.8 µM. For the same molecule, the concentration for total growth inhibition (TGI) in the experiment on RXF 393 renal came to 23.4 µM; with COLO 205 colon, 17.6 µM; in the experiment with LOX IMVI melanoma it was 11.5 µM; with OVCAR-8 ovarian it was 38 µM; in the experiment with T-47D breast, 31.3 µM; in the experiment with UO-31 renal it was 28 µM. Besides, the TGI with SK-OV-3 ovarian worked out at 29.3 µM.

As to `CSc1nc(Cl)c2c(n1)Sc1nc3cc4c(cc3n1C2O)OCCO4` (stereo not drawn), the TGI in the experiment on M14 melanoma was 15.5 µM; in the experiment with K-562 leukemia it was 17.6 µM; with A498 renal, 15.9 µM; in the experiment on MALME-3M melanoma it was 32.6 µM; in the experiment on SNB-75 CNS, 36.4 µM; in the experiment on U251 CNS it was 14.3 µM. Also, the concentration for total growth inhibition (TGI) came out at 19.3 µM in the experiment with RXF 393 renal; 0.142 µM in the experiment on COLO 205 colon; 0.392 µM with LOX IMVI melanoma; 3.03 µM in the experiment with OVCAR-8 ovarian; 65.3 µM in the experiment with T-47D breast; 16 µM with UO-31 renal. Also, in the experiment on SK-OV-3 ovarian, the TGI was above 53.4 µM.

As to `CC(CN1c2ccccc2Sc2ccccc21)N(C)C` (stereo not drawn), the TGI in the experiment on M14 melanoma is 33.9 µM; with K-562 leukemia, 36.1 µM; in the experiment with A498 renal, 34.4 µM; in the experiment with MALME-3M melanoma it was 34.5 µM; in the experiment with SNB-75 CNS, 15.2 µM; in the experiment on U251 CNS, 27.7 µM. In addition, the TGI was found to be 37.5 µM in the experiment on RXF 393 renal; 29.2 µM in the experiment with COLO 205 colon; 35.9 µM with LOX IMVI melanoma; 29.8 µM in the experiment on OVCAR-8 ovarian; 41.6 µM in the experiment with T-47D breast; 32.8 µM with UO-31 renal. Besides, the total growth inhibition concentration (TGI) in the experiment on SK-OV-3 ovarian amounted to 32.6 µM.

In the case of `CC[C@]1(Cc2ccc(OC)c(OC)c2)CN(S(=O)(=O)c2ccc(C)cc2)C[C@@H]1OC(C)=O`, the TGI in the experiment with M14 melanoma, in the experiment with K-562 leukemia, in the experiment on A498 renal, in the experiment on MALME-3M melanoma, with SNB-75 CNS and in the experiment with U251 CNS was above 100 µM each time. For the same molecule, the TGI in the experiment with RXF 393 renal, in the experiment on COLO 205 colon, in the experiment with LOX IMVI melanoma, in the experiment on OVCAR-8 ovarian, with T-47D breast and in the experiment on UO-31 renal was above 100 µM in each case. Moreover, the TGI in the experiment on SK-OV-3 ovarian is above 100 µM.

Turning to `c1ccc2c(c1)OC(N1CCCC1)c1cnc(N3CCCC3)nc1-2` (stereo not drawn), the TGI in the experiment with M14 melanoma was above 100 µM; in the experiment on K-562 leukemia it was above 100 µM; in the experiment with A498 renal, 76 µM; with MALME-3M melanoma, above 100 µM; in the experiment on SNB-75 CNS, 57.1 µM; with U251 CNS, above 100 µM. Further, the TGI in the experiment with RXF 393 renal was 47.8 µM; in the experiment on COLO 205 colon, above 100 µM; in the experiment on LOX IMVI melanoma, above 100 µM; in the experiment on OVCAR-8 ovarian, above 100 µM; in the experiment on T-47D breast, 93.3 µM; with UO-31 renal it was 87.7 µM. Further, the total growth inhibition concentration (TGI) with SK-OV-3 ovarian is above 100 µM.

As to `O=C1/C(=C/c2ccccc2)N=C(c2ccccc2)N1n1c(-c2ccccc2)nc2ccccc2c1=O`, the TGI in the experiment with M14 melanoma, in the experiment with K-562 leukemia, with A498 renal, in the experiment on MALME-3M melanoma, with SNB-75 CNS and with U251 CNS was above 100 µM in each case. Also, the TGI in the experiment with RXF 393 renal, in the experiment on COLO 205 colon, in the experiment with LOX IMVI melanoma, in the experiment with OVCAR-8 ovarian, in the experiment with T-47D breast and in the experiment on UO-31 renal was above 100 µM throughout. In the experiment with SK-OV-3 ovarian, this molecule yielded a total growth inhibition concentration (TGI) above 100 µM.

The values are drawn from PubChem BioAssay (NCI).
